{"source": "patent US20250332178A1", "about": "“METHODS OF TREATING MYCOBACTERIAL INFECTIONS USING TETRACYCLINE COMPOUNDS” (priority 2018, published 2025)", "key": {"[1]": {"test": "MIC by broth microdilution in CAMHB, clinical isolates", "format": "cell-based, Mycobacterium chelonae"}, "[2]": {"system": "M. abscessus subsp. abscessus CIP 104536", "test": "Time-kill kinetics assay", "format": "cell-based", "procedure": "Briefly, M. abscessus cultures were exposed to antimicrobial drugs at 4-fold increasing concentrations for 7 days at 37° C. under shaking conditions at 96 rpm. […] The drug concentrations ranged from 0.063 to 256 mg/L for both compounds. […] At day 1, 3 and 7 during drug exposure, samples were collected, centrifuged at 14000 xg to avoid anti-NTM drug carry over, serially diluted (10-fold, 10^0-10^7) and subcultured onto solid medium. […] The lower limit of detection was 5 cfu/mL (log 0.7). All experiments were performed in duplicate. Time-kill curves, as well as concentration-effect curves were generated."}, "[3]": {"system": "M. abscessus subsp. abscessus CIP 104536", "format": "cell-based", "settings": "at 4 mg/L, after 7 days of drug exposure; subculture plates 16 mg/L"}, "[4]": {"test": "Intra-pulmonary steady-state concentrations (plasma, ELF, alveolar cells) after multiple IV doses in healthy adult subjects", "format": "in vivo, human", "settings": "model-computed", "procedure": "The remaining 20 subjects received tigecycline as 1 intravenous dose of 100 mg administered as a 30 minute infusion at t=0, followed by 6 intravenous doses of 50 mg administered as 30 minute infusions at t=12, 24, 36, 48, 60, and 72 hours. A study completion visit was conducted on the day following the final test article dose. There was a final follow-up assessment 7 to 14 days following the subject's last dose of test article which may be completed by telephone contact or other interactive technology unless an examination was needed to evaluate adverse events or abnormalities noted at the study completion visit.\nPlasma PK samples were collected pre-dose and at 0.5, 1, 1.5, 2, 3, 4, 6, 8, 12 and 24 hours post-dose on day 4. […] One BAL sample was collected from each subject on day 4. Subjects were randomized to one of the following collection times: 0.5, 1, 2, 4, 8, 12 or 24 hours post-dose."}, "M. abscessus": {"system": "M. abscessus", "settings": "strains of M. abscessus; Wallace et al.; cited from earlier work"}, "[5]": {"settings": "52 patients, M. abscessus and M. chelonae infections; Wallace et al.; cited from earlier work"}, "[6]": {"system": "M. abscessus subsp. abscessus CIP 104536", "test": "MIC according to CLSI guidelines", "settings": "Mycobacteroides abscessus, CIP104536, read-out: Minimal Inhibitory Concentration (MIC)", "description": "Vials with M. abscessus suspensions were stored at −80° C. Cultures on solid medium were grown on Mueller Hinton II agar (BD), supplemented with 10% OADC and 0.5% glycerol for 10 days at 37° C. with 5% CO2."}, "M. avium": {"system": "M. avium", "test": "MIC (CLSI broth dilution), slow-growing NTM isolates", "format": "cell-based"}, "M. chimaera": {"system": "M. chimaera", "test": "MIC (CLSI broth dilution), slow-growing NTM isolates", "format": "cell-based"}, "M. arupense": {"system": "M. arupense", "test": "MIC (CLSI broth dilution), slow-growing NTM isolates", "format": "cell-based", "settings": "isolate 11, Other"}, "M. simiae": {"system": "M. simiae", "test": "MIC (CLSI broth dilution), slow-growing NTM isolates", "format": "cell-based"}}}
{"smiles": "CN(C)c1cc(NC(=O)CNC(C)(C)C)c(O)c2c1C[C@H]1C[C@H]3[C@H](N(C)C)C(O)=C(C(N)=O)C(=O)[C@@]3(O)C(O)=C1C2=O", "note": "[Tigecycline, tigecycline]", "values": [{"measurement": "MIC90", "setting": "[1]", "value": 0.125, "unit": "µg/mL"}, {"measurement": "MIC", "setting": "[1]; isolate No. 1, MC 7323", "value": 0.125, "unit": "µg/mL"}, {"measurement": "MIC", "setting": "[1]; isolate No. 2, MC 7534", "value": 0.03, "unit": "µg/mL"}, {"measurement": "MIC", "setting": "[1]; isolate No. 3, MC 7368", "value": 0.03, "unit": "µg/mL"}, {"measurement": "MIC", "setting": "[1]; isolate No. 4, MC 7514", "value": 0.06, "unit": "µg/mL"}, {"measurement": "MIC", "setting": "[1]; isolate No. 5, MC 7584", "value": 0.06, "unit": "µg/mL"}, {"measurement": "MIC", "setting": "[1]; isolate No. 6, MC 7192", "value": 0.03, "unit": "µg/mL"}, {"measurement": "MIC", "setting": "[1]; isolate No. 7, MC 7466", "value": 0.03, "unit": "µg/mL"}, {"measurement": "MIC", "setting": "[1]; isolate No. 8, MC 7533", "value": 0.125, "unit": "µg/mL"}, {"measurement": "MIC", "setting": "[1]; isolate No. 9, MC 7579", "value": 0.03, "unit": "µg/mL"}, {"measurement": "MIC", "setting": "[1]; isolate No. 10, MC 7614", "value": 0.125, "unit": "µg/mL"}, {"measurement": "MIC", "setting": "[1]; isolate No. 11, MC 7414", "value": 0.06, "unit": "µg/mL"}, {"measurement": "MIC", "setting": "[1]; isolate No. 12, MC 7313", "value": 0.25, "unit": "µg/mL"}, {"measurement": "MIC", "setting": "[1]; isolate No. 13, MC 7281", "value": 0.5, "unit": "µg/mL"}, {"measurement": "MIC", "setting": "[1]; isolate No. 14, MC 7328", "value": 0.015, "unit": "µg/mL"}, {"measurement": "MIC", "setting": "[1]; isolate No. 15, MC 7294", "value": 0.125, "unit": "µg/mL"}, {"measurement": "MIC", "setting": "[1]; isolate No. 16, MC 14-S-03", "value": 0.5, "unit": "µg/mL"}, {"measurement": "MIC", "setting": "[1]; isolate No. 17, MC 14-S-04", "value": 0.06, "unit": "µg/mL"}, {"measurement": "MIC", "setting": "[1]; isolate No. 18, MC 14-S-05", "value": 0.125, "unit": "µg/mL"}, {"measurement": "MIC", "setting": "[1]; isolate No. 19, MC 14-S-06", "value": 0.03, "unit": "µg/mL"}, {"measurement": "MIC", "setting": "[1]; isolate No. 20, MC 14-S-07", "value": 0.06, "unit": "µg/mL"}, {"measurement": "MIC", "setting": "[1]; isolate No. 21, MC 35757", "value": 0.125, "unit": "µg/mL"}, {"measurement": "MIC", "setting": "[1]; isolate No. 22, MC 7302", "value": 0.25, "unit": "µg/mL"}, {"measurement": "concentration for 1 log mycobacterial killing", "setting": "[2]; after 7 days of exposure", "value": 2.7, "unit": "mg/L"}, {"measurement": "concentration for 2 log mycobacterial killing", "setting": "[2]; after 7 days of exposure", "value": 3.4, "unit": "mg/L"}, {"measurement": "concentration for stasis (concentration-effect curve)", "setting": "[2]; after 7 days of exposure", "value": 2.2, "unit": "mg/L"}, {"measurement": "concentrations showing mycobacterial killing", "setting": "[2]; time-kill, up to 7 days exposure", "value": "≥ 4", "unit": "mg/L"}, {"measurement": "selection of drug resistance above the spontaneous mutation frequency", "setting": "[3]", "value": 0.6, "unit": "%"}, {"measurement": "AUC", "setting": "[4]; human, in vivo, compartment models, read-out: Total-drug AUC72-96, ELF (Median)", "value": 2590, "unit": "ng·h/mL"}, {"measurement": "Kp", "setting": "[4]; human, in vivo, read-out: Penetration Ratio: total-drug ELF AUC72-84 to free-drug plasma AUC72-84 (Median)", "value": 1.87}, {"measurement": "Free-drug AUC72-96, Plasma (Median)", "setting": "[4]; compartment models", "value": 1380, "unit": "ng·h/mL"}, {"measurement": "in vitro activity (in words)", "setting": "M. abscessus", "value": "good activity"}, {"measurement": "dose reductions due to nausea, vomiting or anorexia", "setting": "[5]", "value": "Approximately half of the patients had dose reductions"}, {"measurement": "MIC", "setting": "[6]", "value": 4, "unit": "µg/mL"}]}
{"smiles": "NCC[C@H](O)C(=O)N[C@@H]1C[C@H](N)[C@@H](O[C@H]2O[C@H](CN)[C@@H](O)[C@H](O)[C@H]2O)[C@H](O)[C@H]1O[C@H]1O[C@H](CO)[C@@H](O)[C@H](N)[C@H]1O", "note": "[Amikacin, amikacin]", "values": [{"measurement": "MIC", "setting": "M. avium; isolate 1, MAC", "value": 32, "unit": "µg/mL"}, {"measurement": "MIC", "setting": "M. avium; isolate 2, MAC", "value": 16, "unit": "µg/mL"}, {"measurement": "MIC", "setting": "M. avium; isolate 3, MAC", "value": 8, "unit": "µg/mL"}, {"measurement": "MIC", "setting": "M. chimaera; isolate 4, MAC", "value": 8, "unit": "µg/mL"}, {"measurement": "MIC", "setting": "M. chimaera; isolate 5, MAC", "value": 8, "unit": "µg/mL"}, {"measurement": "MIC", "setting": "M. arupense", "value": 8, "unit": "µg/mL"}, {"measurement": "MIC", "setting": "M. simiae; isolate 13, Other", "value": 32, "unit": "µg/mL"}, {"measurement": "MIC", "setting": "M. simiae; isolate 14, Other", "value": 16, "unit": "µg/mL"}, {"measurement": "MIC", "setting": "M. simiae; isolate 15, Other", "value": 16, "unit": "µg/mL"}]}
